Laboratory results taken from ChEMBL document CHEMBL1201862, “PubChem BioAssay data set” (2004).
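Protocol summary: plate cells (96-well), add compound at 5 concentrations, incubate 48 h, interpolate endpoints linearly. Here, GI50 denotes the concentration required for 50% inhibition of growth.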 The source made the active and inactive calls. Cut-off read from the data, not from the text of the source: active = GI50 up to about 1.1 µM and inactive = higher.

What was measured:
Assay in all cases: growth of human tumour cells (NCI), 48 h
RPMI-8226 = tested on: RPMI-8226
MOLT-4 = tested on: MOLT-4
HOP-62 = tested on: HOP-62
IGROV-1 = tested on: IGROV-1
NCI-H522 = tested on: NCI-H522
786-0 = tested on: 786-0
SNB-19 = tested on: SNB-19
A498 = tested on: A498
Hs-578T = tested on: Hs-578T
COLO 205 = tested on: COLO 205
OVCAR-5 = tested on: OVCAR-5
SK-MEL-5 = tested on: SK-MEL-5
SK-OV-3 = tested on: SK-OV-3
UACC-62 = tested on: UACC-62
SK-MEL-28 = tested on: SK-MEL-28
NCI/ADR-RES = tested on: NCI/ADR-RES
SN12C = tested on: SN12C
U-251 = tested on: U-251
NCI-H226 = tested on: NCI-H226
PC-3 = tested on: PC-3

Compound	GI50 (RPMI-8226)	GI50 (MOLT-4)	GI50 (HOP-62)	GI50 (IGROV-1)	GI50 (NCI-H522)	GI50 (786-0)	GI50 (SNB-19)	GI50 (A498)	GI50 (Hs-578T)	GI50 (COLO 205)	GI50 (OVCAR-5)	GI50 (SK-MEL-5)	GI50 (SK-OV-3)	GI50 (UACC-62)	GI50 (SK-MEL-28)	GI50 (NCI/ADR-RES)	GI50 (SN12C)	GI50 (U-251)	GI50 (NCI-H226)	GI50 (PC-3)
OC1(C(Sc2cc(C(F)(F)F)cc(C(F)(F)F)c2)Sc2cc(C(F)(F)F)cc(C(F)(F)F)c2)C=CCCC1 (stereo not drawn)	1.47 µM (inactive)	1.65 µM (inactive)	3.25 µM (inactive)	2.38 µM (inactive)	1.74 µM (inactive)	2.39 µM (inactive)	2.49 µM (inactive)	1.35 µM (inactive)	2.95 µM (inactive)	1.99 µM (inactive)	0.847 µM (active)	9.53 µM (inactive)	2.67 µM (inactive)	1.99 µM (inactive)	2.71 µM (inactive)	2.93 µM (inactive)	2.14 µM (inactive)	–	–	–
O=C(NC(CS)C(=O)O)c1c2ccccc2nc2ccccc12 (stereo not drawn)	54.1 µM (inactive)	22.2 µM (inactive)	38.7 µM (inactive)	38 µM (inactive)	31.1 µM (inactive)	> 100 µM (inactive)	23.7 µM (inactive)	> 100 µM (inactive)	–	4.55 µM (inactive)	> 100 µM (inactive)	3.28 µM (inactive)	95.3 µM (inactive)	48.8 µM (inactive)	74.1 µM (inactive)	67.9 µM (inactive)	> 100 µM (inactive)	75 µM (inactive)	< 0.01 µM (active)	23.9 µM (inactive)
Cn1cnc([N+](=O)[O-])c1Sc1nncc2[nH]cnc12	> 100 µM (inactive)	> 100 µM (inactive)	> 100 µM (inactive)	> 100 µM (inactive)	> 100 µM (inactive)	> 100 µM (inactive)	7.82 µM (inactive)	> 100 µM (inactive)	–	> 100 µM (inactive)	> 100 µM (inactive)	> 100 µM (inactive)	> 100 µM (inactive)	> 100 µM (inactive)	> 100 µM (inactive)	> 100 µM (inactive)	> 100 µM (inactive)	> 100 µM (inactive)	> 100 µM (inactive)	> 100 µM (inactive)
Cc1ccc(S(=O)(=O)OI(O)CC(F)(F)F)cc1	> 100 µM (inactive)	> 100 µM (inactive)	> 100 µM (inactive)	> 100 µM (inactive)	91.8 µM (inactive)	> 100 µM (inactive)	–	> 100 µM (inactive)	–	> 100 µM (inactive)	> 100 µM (inactive)	> 100 µM (inactive)	> 100 µM (inactive)	> 100 µM (inactive)	> 100 µM (inactive)	> 100 µM (inactive)	> 100 µM (inactive)	> 100 µM (inactive)	> 100 µM (inactive)	> 100 µM (inactive)
Nn1c(S)nnc1CCCCCCCCc1nnc(S)n1N	> 100 µM (inactive)	> 100 µM (inactive)	> 100 µM (inactive)	> 100 µM (inactive)	> 100 µM (inactive)	> 100 µM (inactive)	> 100 µM (inactive)	> 100 µM (inactive)	–	> 100 µM (inactive)	> 100 µM (inactive)	–	> 100 µM (inactive)	> 100 µM (inactive)	> 100 µM (inactive)	> 100 µM (inactive)	> 100 µM (inactive)	> 100 µM (inactive)	> 100 µM (inactive)	> 100 µM (inactive)
Cc1cn(C2CC(OP(=O)(O)OCC3OC(n4c[n+]([BH2-]C#N)c5c(=O)[nH]c(N)nc54)CC3O)C(CO)O2)c(=O)[nH]c1=O (stereo not drawn)	> 100 µM (inactive)	> 100 µM (inactive)	> 100 µM (inactive)	> 100 µM (inactive)	> 100 µM (inactive)	> 100 µM (inactive)	> 100 µM (inactive)	> 100 µM (inactive)	–	> 100 µM (inactive)	> 100 µM (inactive)	> 100 µM (inactive)	–	> 100 µM (inactive)	–	> 100 µM (inactive)	> 100 µM (inactive)	> 100 µM (inactive)	> 100 µM (inactive)	> 100 µM (inactive)
